Test: xn = mol fraction of the nth substance listed
Conditions: 96.7 kPa, Liquid, Vibrating tube method

CCCCn1cc[n+](C)c1.[Cl-] [1-butyl-3-methylimidazolium chloride] + CC(=O)N(C)C
mass density [kg/m3]
Conditions | x1 = 0.177 | x1 = 0.332 | x1 = 0.428 | x1 = 0.538 | x1 = 0.664 | x1 = 0.816 | x1 = 0.904 | x1 = 1
303.15 K | 980.28 | 1010.24 | 1025.06 | 1038.52 | 1052.4 | 1066.29 | 1073.17 | 1079.41
308.15 K | 976.2 | 1006.61 | 1021.6 | 1035.1 | 1049.19 | 1063.28 | 1070.28 | 1076.58
313.15 K | 972.2 | 1002.98 | 1018.15 | 1031.7 | 1045.95 | 1060.2 | 1067.41 | 1073.78
318.15 K | 968.23 | 999.36 | 1014.71 | 1028.35 | 1042.78 | 1057.21 | 1064.54 | 1070.99
323.15 K | 964.27 | 995.75 | 1011.28 | 1024.85 | 1039.56 | 1054.27 | 1061.66 | 1068.19
328.15 K | 960.32 | 992.15 | 1007.86 | 1021.56 | 1036.44 | 1051.33 | 1058.85 | 1065.36
333.15 K | 956.38 | 988.55 | 1004.46 | 1018.33 | 1033.37 | 1048.41 | 1056.06 | 1062.6
338.15 K | 952.45 | 984.97 | 1001.06 | 1015.16 | 1030.34 | 1045.52 | 1053.26 | 1059.87
343.15 K | 948.53 | 981.38 | 997.67 | 1012.07 | 1027.37 | 1042.67 | 1050.47 | 1057.15
348.15 K | 944.61 | 977.8 | 994.29 | 1009.03 | 1024.45 | 1039.87 | 1047.69 | 1054.42
353.15 K | 940.67 | 974.22 | 990.92 | 1006.06 | 1021.59 | 1037.13 | 1044.91 | 1051.69

CCCCn1cc[n+](C)c1.[Cl-] [1-butyl-3-methylimidazolium chloride] + CN(C)C=O
mass density [kg/m3]
Conditions | x1 = 0.151 | x1 = 0.295 | x1 = 0.385 | x1 = 0.493 | x1 = 0.626 | x1 = 0.79 | x1 = 0.887 | x1 = 1
303.15 K | 987.64 | 1016.34 | 1030.08 | 1043.12 | 1055.89 | 1067.73 | 1072.65 | 1079.41
308.15 K | 983.55 | 1012.63 | 1026.56 | 1039.78 | 1052.75 | 1064.72 | 1069.74 | 1076.58
313.15 K | 979.45 | 1008.93 | 1023.05 | 1036.46 | 1049.6 | 1061.75 | 1066.84 | 1073.78
318.15 K | 975.35 | 1005.24 | 1019.54 | 1033.15 | 1046.6 | 1058.83 | 1063.95 | 1070.99
323.15 K | 971.26 | 1001.56 | 1016.05 | 1029.85 | 1043.35 | 1055.91 | 1060.97 | 1068.19
328.15 K | 967.16 | 997.89 | 1012.57 | 1026.56 | 1040.24 | 1052.99 | 1058.13 | 1065.36
333.15 K | 963.07 | 994.21 | 1009.1 | 1023.29 | 1037.16 | 1050.07 | 1055.31 | 1062.6
338.15 K | 958.97 | 990.55 | 1005.66 | 1020.03 | 1034.08 | 1047.16 | 1052.48 | 1059.87
343.15 K | 954.87 | 986.89 | 1002.24 | 1016.78 | 1031.03 | 1044.26 | 1049.67 | 1057.15
348.15 K | 950.78 | 983.24 | 998.82 | 1013.55 | 1027.98 | 1041.39 | 1046.88 | 1054.42
353.15 K | 946.68 | 979.59 | 995.4 | 1010.33 | 1024.94 | 1038.53 | 1044.11 | 1051.69

CCCCn1cc[n+](C)c1.[Cl-] [1-butyl-3-methylimidazolium chloride] + C[S+](C)[O-]
mass density [kg/m3]
Conditions | x1 = 0.161 | x1 = 0.309 | x1 = 0.401 | x1 = 0.509 | x1 = 0.641 | x1 = 0.801 | x1 = 0.894 | x1 = 1
303.15 K | 1090.42 | 1093.72 | 1092.13 | 1089.44 | 1086.22 | 1083.66 | 1081.72 | 1079.41
308.15 K | 1086.85 | 1089.98 | 1088.58 | 1086.09 | 1082.96 | 1080.69 | 1078.88 | 1076.58
313.15 K | 1083.14 | 1086.25 | 1085.04 | 1082.74 | 1079.73 | 1077.69 | 1075.99 | 1073.78
318.15 K | 1079.58 | 1082.54 | 1081.51 | 1079.35 | 1076.52 | 1074.71 | 1073.12 | 1070.99
323.15 K | 1075.76 | 1078.83 | 1078 | 1076.05 | 1073.33 | 1071.78 | 1070.22 | 1068.19
328.15 K | 1072.19 | 1075.14 | 1074.5 | 1072.7 | 1070.18 | 1068.87 | 1067.39 | 1065.36
333.15 K | 1068.87 | 1071.45 | 1071.01 | 1069.47 | 1067.09 | 1065.95 | 1064.59 | 1062.6
338.15 K | 1065.13 | 1067.76 | 1067.54 | 1066.13 | 1064.06 | 1063.04 | 1061.79 | 1059.87
343.15 K | 1061.44 | 1064.1 | 1064.07 | 1062.88 | 1061.11 | 1060.14 | 1058.99 | 1057.15
348.15 K | 1057.69 | 1060.44 | 1060.63 | 1059.65 | 1058.17 | 1057.25 | 1056.19 | 1054.42
353.15 K | 1053.72 | 1056.79 | 1057.19 | 1056.42 | 1055.25 | 1054.38 | 1053.41 | 1051.69

c1ccncc1 [pyridine] + CCCCn1cc[n+](C)c1.[Cl-]
mass density [kg/m3]
Conditions | x2 = 0 | x2 = 0.163 | x2 = 0.313 | x2 = 0.404 | x2 = 0.514 | x2 = 0.644 | x2 = 0.803 | x2 = 0.895
303.15 K | 973.09 | 1013.2 | 1035.67 | 1045.6 | 1054.49 | 1063.34 | 1072.41 | 1075.89
308.15 K | 968.06 | 1009.09 | 1032.05 | 1042.19 | 1051.2 | 1060.26 | 1069.51 | 1073.02
313.15 K | 963.02 | 1004.97 | 1028.43 | 1038.78 | 1047.94 | 1057.18 | 1066.59 | 1070.16
318.15 K | 957.97 | 1000.85 | 1024.82 | 1035.39 | 1044.72 | 1054.11 | 1063.66 | 1067.3
323.15 K | 952.9 | 996.73 | 1021.21 | 1032.01 | 1041.52 | 1051.04 | 1060.72 | 1064.45
328.15 K | 947.82 | 992.6 | 1017.6 | 1028.63 | 1038.33 | 1047.99 | 1057.81 | 1061.65
333.15 K | 942.72 | 988.47 | 1014 | 1025.25 | 1035.14 | 1044.96 | 1054.92 | 1058.86
338.15 K | 937.6 | 984.34 | 1010.4 | 1021.89 | 1031.93 | 1041.94 | 1052.08 | 1056.09
343.15 K | 932.46 | 980.21 | 1006.81 | 1018.53 | 1028.66 | 1038.93 | 1049.29 | 1053.31
348.15 K | 927.3 | 976.06 | 1003.22 | 1015.17 | 1025.27 | 1035.92 | 1046.57 | 1050.53
353.15 K | 922.12 | 971.91 | 999.63 | 1011.79 | 1021.81 | 1032.89 | 1044.02 | 1047.77
